Values belong to the molecule of their own block, whether it stands above or below them.
What was measured:
[1] = system: outpatients 65 years of age or older with major depressive disorder (MDD); test: Efficacy outcome measures (HDRS-17, GDS) in double-blind mirtazapine vs paroxetine study, stratified by 5HTTLPR genotype; format: in vivo, human; conditions: for HAMD-17 or GDS, differences among the three genotype groups: patients stratified by 5HTTLPR genotype (S/S, S/L, L/L), any time point
Text: Genet. 8(3):193-195 (1998).

[2] = system: outpatients 65 years of age or older with major depressive disorder (MDD); conditions: in vivo
Text: (§1) The study group included 255 outpatients 65 years of age or older with major depressive disorder (MDD) who were randomized to mirtazapine or paroxetine in a double-blind design at 18 U.S. centers. Details of the study design and overall clinical outcomes have been previously described (Schatzberg et al., Am J Geriatr Psychiatry 10(5):541-550 (2002)). […] At baseline all patients scored above the age-adjusted 25th percentile on the Mini Mental State Exam (MMSE), and all had Hamilton Depression Rating Scale (HDRS-17) scores ≧18. Starting doses were 15 mg for mirtazapine and 20 mg for paroxetine. Dosage for both medications was increased to 30 mg after 14 days, with the option to increase to 45 mg of mirtazapine or 40 mg of paroxetine on subsequent visits. Exclusion criteria were clinically significant unstable medical illness, history of treatment resistance, principal psychiatric diagnoses other than MDD, use of other psychotropics, and electroconvulsive therapy (ECT) within the previous 6 months.
(§2) Genomic DNA was extracted from EDTA-treated frozen whole blood by using a Puregene Kit (Gentra Systems, Minneapolis). 5HTTLPR genotypes were determined by PCR and gel electrophoresis as described in Edenberg et al., Psychiatr. Genet. 8(3):193-195 (1998).
(§3) Plasma drug levels were obtained after 4 weeks of treatment as described (Murphy et al., Biol Psychiatry 54:665-673 (2003)). Efficacy outcome measures (determined at baseline and at day 7,14, 21, 28, 42, and 56) included the Hamilton Depression Rating Scale (HDRS-17) (Hamilton et al., Br J Soc Clin Psychol. 6(4):278-296 (1967)) and the Geriatric Depression Scale (GDS) (Yesavage et al., J. Psychiat. Res. 17:37-49 (1983)). Measures related to adverse events included Medication Compliance, Severity of Adverse Events, Time to Discontinuation of Treatment Regimen due to an adverse event, and number of discontinuations due to an adverse event. Statistical methods included analyses of covariance (adjusted for baseline scores), Cochran-Mantel-Haenszel statistics, and Kaplan-Meier survival analyses. […] Analyses were performed for the entire group and also with 20 ethnic minority patients omitted.

[3] = in vivo
Text: as §1, §2, §3

frequency of discontinuation of treatment regimen, L/L genotype [2]: fewest
frequency of discontinuation of treatment regimen, S/L genotype [2]: intermediate frequency
frequency of discontinuation of treatment regimen, S/S genotype [2]: most frequent
subjects who discontinued treatment regimen, L/L and T/T genotypes [2]: none
Structure (SMILES): Fc1ccc([C@@H]2CCNC[C@H]2COc2ccc3c(c2)OCO3)cc1 [paroxetine]
HDRS, carriers of the S allele vs others ([1]; FIG. 2B): No differences
GDS scores, carriers of the S allele ([1]; days 7 (p=0.003) and 28 (p=0.04), adjusted for baseline body weight, higher = more depressed): significantly higher scores
HAMD-17 or GDS, differences among the three genotype groups [1]: no significant differences
subjects who discontinued treatment regimen due to adverse events, 5HTTLPR S/S and 5HT2A C/C genotypes ([2]; human): 7 of 10
adverse events associated with S/S discontinuations [2]: gastrointestinal complaints, fatigue, agitation, sweating, and dizziness
effects of 5HTTLPR and 5HT2A 102 T/C on discontinuation of treatment regimen due to adverse events [2]: significant effects
interaction term 5HTTLPR x 5HT2A 102 T/C on discontinuation due to adverse events [2]: not significant
relationship between number of S alleles and discontinuations due to adverse events, Caucasian patients [2]: positive linear relationship
relationship between number of S alleles and probability of discontinuation due to adverse events [2]: positive linear relationship
risk of discontinuation of the treatment regimen due to adverse events, S/L vs L/L genotype [2]: significantly greater risk
severity of adverse events, S/S vs L/L genotype [2]: greater severity

plasma levels at day 28, differences among the genotype groups [3]: no significant differences
frequency of discontinuation of treatment regimen, L/L genotype [2]: most frequent
Structure (SMILES): CN1CCN2c3ncccc3Cc3ccccc3C2C1 (stereo not drawn) [mirtazapine]
GDS scores, S carriers vs others ([1]; after adjusting for baseline difference, any subsequent time point): not significantly different
HDRS scores, S allele carriers ([1]; day 14, less depressed, p<0.27): lower HDRS scores
HAMD-17 or GDS, differences among the three genotype groups [1]: no significant differences
adverse events associated with L/L genotype discontinuations [2]: drowsiness, dizziness, and anxiety
relationship between number of L alleles and discontinuation due to adverse events, Caucasian patients [2]: positive linear relationship
relationship between number of L alleles and probability of discontinuation due to adverse events [2]: positive linear relationship
severity of adverse events, L/L vs S/S genotype [2]: greater severity

Reference: patent US20050165115A1, “Methods and compositions for predicting compliance with an antidepressant treatment regimen” (priority 2003, published 2005)
